{"source": "ChEMBL document CHEMBL1129093", "about": "“Synthesis and biological activities of a novel class of azole-containing antifungal agents” (1996)", "key": {"Kluyveromyces marxianus": {"test_system": "Kluyveromyces marxianus", "assay": "Compound was tested in vitro for antifungal activity against Candida kefyr.", "assay_type": "functional"}, "Aspergillus fumigatus": {"test_system": "Aspergillus fumigatus", "assay": "Compound was tested in vitro for antifungal activity against Aspergillus fumigatus.", "assay_type": "functional"}, "Aspergillus flavus [1]": {"test_system": "Aspergillus flavus", "assay": "(§1) Compound was tested in vitro for antifungal activity against Aspergillus flavus.", "assay_type": "functional, asperigillus"}, "Cryptococcus neoformans": {"test_system": "Cryptococcus neoformans", "assay": "Compound was tested in vitro for antifungal activity against Cryptococcus neoformans.", "assay_type": "functional"}, "Candida albicans": {"test_system": "Candida albicans", "assay": "Compound was tested in vitro for antifungal activity against Candida albicans.", "assay_type": "functional"}, "Trichophyton benhamiae [2]": {"test_system": "Trichophyton benhamiae", "assay": "(§2) Compound was tested in vitro for antifungal activity against Trichophyton mentagrophytes.", "assay_type": "functional, trichophyton mentagro"}, "Trichophyton benhamiae [3]": {"test_system": "Trichophyton benhamiae", "assay": "as §2", "assay_type": "functional, Arthroderma benhamiae"}, "Aspergillus flavus [4]": {"test_system": "Aspergillus flavus", "assay": "as §1", "assay_type": "functional"}}, "data": [{"smiles": "Fc1ccc(CN2CCc3ccccc3C2Cn2cncn2)cc1", "note": "(stereo not drawn)", "values": [{"measurement": "MIC", "setting": "Kluyveromyces marxianus", "value": "> 50", "unit": "µg/mL"}, {"measurement": "MIC", "setting": "Aspergillus fumigatus", "value": "> 50", "unit": "µg/mL"}, {"measurement": "MIC", "setting": "Aspergillus flavus [1]", "value": "> 50", "unit": "µg/mL"}, {"measurement": "MIC", "setting": "Cryptococcus neoformans", "value": "> 50", "unit": "µg/mL"}, {"measurement": "MIC", "setting": "Candida albicans", "value": "> 50", "unit": "µg/mL"}, {"measurement": "MIC", "setting": "Trichophyton benhamiae [2]", "value": 1, "unit": "µg/mL"}]}, {"smiles": "C[C@@H]1[C@H](O)[C@@H](C)/C=C/C=C/C=C/C=C/C=C/C=C/C=C/[C@H](O[C@@H]2O[C@H](C)[C@@H](O)[C@H](N)[C@@H]2O)C[C@@H]2O[C@](O)(C[C@@H](O)C[C@@H](O)[C@H](O)CC[C@@H](O)C[C@@H](O)CC(=O)O[C@H]1C)C[C@H](O)[C@H]2C(=O)O", "note": "[AMPHOTERICIN B]", "values": [{"measurement": "MIC", "setting": "Kluyveromyces marxianus", "value": 0.19, "unit": "µg/mL"}, {"measurement": "MIC", "setting": "Aspergillus fumigatus", "value": 25, "unit": "µg/mL"}, {"measurement": "MIC", "setting": "Aspergillus flavus [1]", "value": 12.5, "unit": "µg/mL"}, {"measurement": "MIC", "setting": "Cryptococcus neoformans", "value": 0.19, "unit": "µg/mL"}, {"measurement": "MIC", "setting": "Candida albicans", "value": 0.19, "unit": "µg/mL"}, {"measurement": "MIC", "setting": "Trichophyton benhamiae [2]", "value": 1.56, "unit": "µg/mL"}]}, {"smiles": "Clc1ccc(COC(Cn2ccnc2)c2ccc(Cl)cc2Cl)c(Cl)c1", "note": "(stereo not drawn) [MICONAZOLE]", "values": [{"measurement": "MIC", "setting": "Kluyveromyces marxianus", "value": 0.09, "unit": "µg/mL"}, {"measurement": "MIC", "setting": "Aspergillus fumigatus", "value": 0.39, "unit": "µg/mL"}, {"measurement": "MIC", "setting": "Trichophyton benhamiae [3]", "value": 0.39, "unit": "µg/mL"}, {"measurement": "MIC", "setting": "Aspergillus flavus [4]", "value": 0.39, "unit": "µg/mL"}, {"measurement": "MIC", "setting": "Cryptococcus neoformans", "value": 0.19, "unit": "µg/mL"}, {"measurement": "MIC", "setting": "Candida albicans", "value": 12.5, "unit": "µg/mL"}]}, {"smiles": "Fc1ccc(CN2CCc3ccccc3C2Cn2ccnc2)cc1", "note": "(stereo not drawn)", "values": [{"measurement": "MIC", "setting": "Kluyveromyces marxianus", "value": "> 50", "unit": "µg/mL"}, {"measurement": "MIC", "setting": "Aspergillus fumigatus", "value": 12.5, "unit": "µg/mL"}, {"measurement": "MIC", "setting": "Aspergillus flavus [1]", "value": 6.25, "unit": "µg/mL"}, {"measurement": "MIC", "setting": "Cryptococcus neoformans", "value": "> 50", "unit": "µg/mL"}, {"measurement": "MIC", "setting": "Candida albicans", "value": "> 50", "unit": "µg/mL"}, {"measurement": "MIC", "setting": "Trichophyton benhamiae [2]", "value": 0.1, "unit": "µg/mL"}]}, {"smiles": "c1ccc(CN2CCc3ccccc3C2Cn2ccnc2)cc1", "note": "(stereo not drawn)", "values": [{"measurement": "MIC", "setting": "Kluyveromyces marxianus", "value": "> 50", "unit": "µg/mL"}, {"measurement": "MIC", "setting": "Aspergillus fumigatus", "value": 25, "unit": "µg/mL"}, {"measurement": "MIC", "setting": "Aspergillus flavus [1]", "value": 25, "unit": "µg/mL"}, {"measurement": "MIC", "setting": "Cryptococcus neoformans", "value": "> 50", "unit": "µg/mL"}, {"measurement": "MIC", "setting": "Candida albicans", "value": "> 50", "unit": "µg/mL"}, {"measurement": "MIC", "setting": "Trichophyton benhamiae [2]", "value": 0.19, "unit": "µg/mL"}]}, {"smiles": "Clc1ccc(CN2CCc3ccccc3C2Cn2cncn2)c(Cl)c1", "note": "(stereo not drawn)", "values": [{"measurement": "MIC", "setting": "Kluyveromyces marxianus", "value": "> 50", "unit": "µg/mL"}, {"measurement": "MIC", "setting": "Aspergillus fumigatus", "value": "> 50", "unit": "µg/mL"}, {"measurement": "MIC", "setting": "Aspergillus flavus [1]", "value": "> 50", "unit": "µg/mL"}, {"measurement": "MIC", "setting": "Cryptococcus neoformans", "value": 12.5, "unit": "µg/mL"}, {"measurement": "MIC", "setting": "Candida albicans", "value": "> 50", "unit": "µg/mL"}, {"measurement": "MIC", "setting": "Trichophyton benhamiae [2]", "value": 4, "unit": "µg/mL"}]}, {"smiles": "Fc1ccc(CN2CCc3ccccc3C2Cn2ccnc2)c(F)c1", "note": "(stereo not drawn)", "values": [{"measurement": "MIC", "setting": "Kluyveromyces marxianus", "value": "> 50", "unit": "µg/mL"}, {"measurement": "MIC", "setting": "Aspergillus fumigatus", "value": 6.25, "unit": "µg/mL"}, {"measurement": "MIC", "setting": "Aspergillus flavus [1]", "value": 0.78, "unit": "µg/mL"}, {"measurement": "MIC", "setting": "Cryptococcus neoformans", "value": "> 50", "unit": "µg/mL"}, {"measurement": "MIC", "setting": "Candida albicans", "value": "> 50", "unit": "µg/mL"}, {"measurement": "MIC", "setting": "Trichophyton benhamiae [2]", "value": 0.39, "unit": "µg/mL"}]}, {"smiles": "c1ccc(CN2CCc3ccccc3C2Cn2cncn2)cc1", "note": "(stereo not drawn)", "values": [{"measurement": "MIC", "setting": "Kluyveromyces marxianus", "value": "> 50", "unit": "µg/mL"}, {"measurement": "MIC", "setting": "Aspergillus fumigatus", "value": "> 50", "unit": "µg/mL"}, {"measurement": "MIC", "setting": "Aspergillus flavus [1]", "value": "> 50", "unit": "µg/mL"}, {"measurement": "MIC", "setting": "Cryptococcus neoformans", "value": "> 50", "unit": "µg/mL"}, {"measurement": "MIC", "setting": "Candida albicans", "value": "> 50", "unit": "µg/mL"}, {"measurement": "MIC", "setting": "Trichophyton benhamiae [2]", "value": 4, "unit": "µg/mL"}]}, {"smiles": "OC(Cn1cncn1)(Cn1cncn1)c1ccc(F)cc1F", "note": "[FLUCONAZOLE]", "values": [{"measurement": "MIC", "setting": "Kluyveromyces marxianus", "value": 0.39, "unit": "µg/mL"}, {"measurement": "MIC", "setting": "Aspergillus fumigatus", "value": "> 50", "unit": "µg/mL"}, {"measurement": "MIC", "setting": "Trichophyton benhamiae [3]", "value": "> 50", "unit": "µg/mL"}, {"measurement": "MIC", "setting": "Aspergillus flavus [4]", "value": "> 50", "unit": "µg/mL"}, {"measurement": "MIC", "setting": "Cryptococcus neoformans", "value": 3.12, "unit": "µg/mL"}, {"measurement": "MIC", "setting": "Candida albicans", "value": "> 50", "unit": "µg/mL"}]}, {"smiles": "Fc1ccc(CN2CCc3ccccc3C2Cn2cncn2)c(F)c1", "note": "(stereo not drawn)", "values": [{"measurement": "MIC", "setting": "Kluyveromyces marxianus", "value": 0.39, "unit": "µg/mL"}, {"measurement": "MIC", "setting": "Aspergillus fumigatus", "value": "> 50", "unit": "µg/mL"}, {"measurement": "MIC", "setting": "Aspergillus flavus [1]", "value": "> 50", "unit": "µg/mL"}, {"measurement": "MIC", "setting": "Cryptococcus neoformans", "value": "> 50", "unit": "µg/mL"}, {"measurement": "MIC", "setting": "Candida albicans", "value": "> 50", "unit": "µg/mL"}, {"measurement": "MIC", "setting": "Trichophyton benhamiae [2]", "value": 2, "unit": "µg/mL"}]}, {"smiles": "Clc1ccc(CN2CCc3ccccc3C2Cn2cncn2)cc1", "note": "(stereo not drawn)", "values": [{"measurement": "MIC", "setting": "Kluyveromyces marxianus", "value": 0.39, "unit": "µg/mL"}, {"measurement": "MIC", "setting": "Aspergillus fumigatus", "value": 4, "unit": "µg/mL"}, {"measurement": "MIC", "setting": "Aspergillus flavus [1]", "value": 25, "unit": "µg/mL"}, {"measurement": "MIC", "setting": "Cryptococcus neoformans", "value": 6.25, "unit": "µg/mL"}, {"measurement": "MIC", "setting": "Candida albicans", "value": "> 50", "unit": "µg/mL"}, {"measurement": "MIC", "setting": "Trichophyton benhamiae [2]", "value": 0.25, "unit": "µg/mL"}]}, {"smiles": "Clc1ccc(CN2CCc3ccccc3C2Cn2ccnc2)c(Cl)c1", "note": "(stereo not drawn)", "values": [{"measurement": "MIC", "setting": "Kluyveromyces marxianus", "value": 0.19, "unit": "µg/mL"}, {"measurement": "MIC", "setting": "Aspergillus fumigatus", "value": 0.39, "unit": "µg/mL"}, {"measurement": "MIC", "setting": "Aspergillus flavus [1]", "value": 0.78, "unit": "µg/mL"}, {"measurement": "MIC", "setting": "Cryptococcus neoformans", "value": 1.56, "unit": "µg/mL"}, {"measurement": "MIC", "setting": "Candida albicans", "value": "> 50", "unit": "µg/mL"}, {"measurement": "MIC", "setting": "Trichophyton benhamiae [2]", "value": 6.25, "unit": "µg/mL"}]}, {"smiles": "Clc1ccc(CN2CCc3ccccc3C2Cn2ccnc2)cc1", "note": "(stereo not drawn)", "values": [{"measurement": "MIC", "setting": "Kluyveromyces marxianus", "value": 0.1, "unit": "µg/mL"}, {"measurement": "MIC", "setting": "Aspergillus fumigatus", "value": 3.12, "unit": "µg/mL"}, {"measurement": "MIC", "setting": "Aspergillus flavus [1]", "value": 0.19, "unit": "µg/mL"}, {"measurement": "MIC", "setting": "Cryptococcus neoformans", "value": 0.39, "unit": "µg/mL"}, {"measurement": "MIC", "setting": "Candida albicans", "value": "> 50", "unit": "µg/mL"}, {"measurement": "MIC", "setting": "Trichophyton benhamiae [2]", "value": 0.19, "unit": "µg/mL"}]}]}
